Data taken from patent US20070122470A1, “New Combination Dosage Form” (priority 2005, published 2007).

Tests used:
[1] = randomized, double-blind, placebo-controlled trial of esomeprazole 20 mg once daily for 26 weeks in patients receiving ASA; type: in vivo
Description: Patients were randomized to receive either esomeprazole 20 mg (administered as esomeprazole magnesium, i.e. Nexium® owned by AstraZeneca AB) or placebo once daily for 26 weeks. The primary outcome variable was the presence of gastric and/or duodenal ulcers at endoscopy over the 26-week period. A total of 991 patients, all receiving ASA in doses varying between 75-325 mg/day (57.1% male, mean age 69.3 years, mean acetyl salicylic acid (ASA) dose 124.0 mg/day) were included in the intent-to-treat population. The cumulative proportion of patients without either gastric or duodenal ulcer at 26 weeks was 98.2% with esomeprazole, compared with 93.8% with placebo (life table estimates, p=0.0007). The incidence of gastric ulcers was lower in patients taking esomeprazole than in those taking placebo (1.2% vs. 3.8%), as was the incidence of duodenal ulcers (0.4% and 1.6% for esomeprazole and placebo, respectively). Eight patients (1.6%) had developed an ulcer, in the esomeprazole group by 6 months, compared with 27 patients (5.4%) in the placebo group. This corresponded to a relative reduction of developing an ulcer of 70% when taking esomeprazole rather than placebo. A total of 95.6% of patients treated with esomeprazole had no esophageal lesions at week 26, compared with 81.7% of patients treated with placebo (p<0.0001).

[2] = cited from earlier work
[3] = concomitant administration for patients treated with ASA (Müller et al 1997); cited from earlier work
[4] = esomeprazole 20 mg once daily, 26 weeks, patients on ASA

COc1ccc2nc([S@@+]([O-])Cc3ncc(C)c(OC)c3C)[nH]c2c1 [esomeprazole]
resolution of investigator-assessed upper gastrointestinal symptoms ([1]; all symptoms, versus placebo): higher with esomeprazole than with placebo | safety and tolerability ([1]; esomeprazole 20 mg once daily for 26 weeks, patients on ASA): safe and well tolerated | incidence of duodenal ulcers [1, 4]: 0.4% | incidence of gastric ulcers [1, 4]: 1.2% | cumulative proportion of patients without either gastric or duodenal ulcer at 26 weeks ([1]; esomeprazole 20 mg once daily, 26 weeks, patients ≧60 years on ASA 75-325 mg/day, life table estimates, p=0.0007 vs placebo): 98.2% | patients who had developed an ulcer by 6 months ([1]; esomeprazole 20 mg once daily, patients on ASA, eight patients): 1.6% | patients with no esophageal lesions at week 26 ([1]; esomeprazole 20 mg once daily, patients on ASA, p<0.0001 vs placebo): 95.6% | relative reduction of developing an ulcer ([1]; esomeprazole rather than placebo, by 6 months): 70% | proportion of patients without esophageal lesions at 6 months ([1]; patients with no lesions and those with Los Angeles grade A lesions at baseline, versus placebo): higher with esomeprazole than with placebo

CC(=O)Oc1ccccc1C(=O)O [ASA, acetyl salicylic acid]
relative risk of developing an ulcer complication like bleeding from the stomach or the duodenum ([2]; daily dose as low as 75 mg (Weil et al BMJ 1995)): doubles | hospital admissions due to adverse drug reactions caused by ASA ([2]; epidemiological data from the UK (Pirmohamed et al BMJ 2004)): 18%

Cc1c(OCC(F)(F)F)ccnc1C[S+]([O-])c1nc2ccccc2[nH]1 (stereo not drawn) [lansoprazole]
effect on damages on the mucosa caused by ASA [3]: reduce damages on the mucosa caused by ASA
